# Measured values from patent US7192722B2, “Phenethanolamine-derived haptens, immunogens, antibodies and conjugates” (Randox Laboratories, priority 2004, dated 2007).
# Several values for one entry are separate records, joined by “and”; a condition that tells them apart may be missing. Equal values may be shown once.
# Experiments:
# [1] = tested on: Shelver monoclonal antibody (5G10); settings: Shelver mAb, cited from earlier work; for % CR: relative to ractopamine = 100%
# [2] = tested on: Shelver polyclonal antiserum (ractopamine-hemiglutarate-KLH); settings: Shelver pAb, cited from earlier work; for % CR: relative to ractopamine = 100%
# [3] = tested on: IgG fraction of the antiserum raised to immunogen C (hapten C-BSA); assay: Competitive ELISA for ractopamine, Example 22 b): antiserum to immunogen C, conjugate C (hapten C-HRP); format: binding, sheep; settings: for % CR: cross-reactivity relative to ractopamine = 100%
# Procedure: (§1) An aqueous solution of each immunogen was formulated with Freund's Complete Adjuvant (FCA) to form an emulsion consisting of 2 mg/ml immunogen in 50% (v/v) FCA. Three sheep were immunised with this emulsion (1° immunisation), 0.25 ml being subcutaneously injected at each of four sites in the flank of each animal. Subsequent immunizations (boosts) contained 1 mg/ml immunogen. All boosts were emulsified in 50% (v/v) Freund's Incomplete Adjuvant (FIA) and were administered in the same manner as the 1° immunisation, at monthly intervals for 1 year. Blood sampling took place 7 to 14 days after each boost. Each sample was processed to produce antiserum, which was further purified by caprylic acid and ammonium sulfate precipitation to yield an immunoglobulin G (IgG) fraction.
# The same definitions apply for A450, B, B0 and IC50.
# (§2) Employing each series of standards in the ractopamine competitive ELISAs, calibration curves were generated and these were used to determine the cross-reactivity of each immunoassay with these substances.
# [4] = tested on: IgG fraction of the antiserum raised to immunogen A (hapten A-BSA); assay: Competitive ELISA for ractopamine, Example 22 a): antiserum to immunogen A, conjugate A (hapten A-HRP); format: binding, sheep; settings: for % CR: cross-reactivity relative to ractopamine = 100%
# Procedure: as §1
# The appropriate antibody coating dilution was determined using standard ELISA checkerboard techniques. The plate was incubated for 2 hours at 37° C., washed 4 times with Tris buffered saline containing Tween 20 (TBST) and tapped dry. Standard solutions of ractopamine were prepared in TBST at 0, 0.05, 0.1, 0.5, 1, and 5 ng/ml, and 50 μl of each was added to the appropriate wells. […] The appropriate dilution of conjugate was also determined using standard ELISA checkerboard techniques. The plate was incubated at 37° C. for 2 hours. Excess unbound conjugate was removed by washing 6 times over a 10 minute period with TBST. 125 μl of tetramethylbenzidine (TMB) substrate solution was added to each well of the plate that was then incubated for 15 to 20 minutes in the dark at room temperature. The reaction was terminated by addition of 125 μl 0.2M H2SO4 to each well. The absorbance was then measured at 450 nm using a microtiter plate reader.
# as §2
# [5] = tested on: IgG fraction of the antiserum raised to immunogen D (hapten D-BSA); assay: Competitive ELISA for isoxsuprine, Example 24: antiserum to immunogen D, conjugate D (hapten D-HRP); format: binding; settings: for % CR: cross-reactivity relative to isoxsuprine = 100%
# [6] = tested on: IgG fraction of the antiserum raised to immunogen E (hapten E-BSA); assay: Competitive ELISA for ritodrine, Example 25: antiserum to immunogen E, conjugate E (hapten E-HRP); format: binding; settings: for % CR: cross-reactivity relative to ritodrine = 100%
# [7] = tested on: Haasnoot antibody derived from a fenoterol derivative; settings: cited from earlier work
Molecule,IC50 CR [1],% CR [1] [%],IC50 CR [2],% CR [2] [%],% CR [3] [%],% CR [4] [%],other results
CCCCNCC(O)c1ccc(O)cc1 (stereo not drawn) [Bamethane],831 ng/mL,0.3,"2,900 ng/ml",0.1,<0.01,<0.16,–
CC(C)NCC(O)c1ccc(O)c(O)c1 (racemic) [DL-Isoproterenol],–,–,">100,000 ng/ml",<0.01,<0.5,<0.16,–
CC(COc1ccccc1)NC(C)C(O)c1ccc(O)cc1 (stereo not drawn) [Isoxsuprine],"1,391 ng/ml",0.2,"6,200 ng/ml",0.1,<0.6,<0.16,% CR [5]: 100%; % B/B0 ([5]; isoxsuprine 0.5 ng/ml): 31.6%; % B/B0 ([5]; isoxsuprine 1 ng/ml): 17.0%; % B/B0 ([5]; isoxsuprine 5 ng/ml): 6.7%; % B/B0 ([5]; isoxsuprine 10 ng/ml): 4.9%; % B/B0 ([5]; isoxsuprine 50 ng/ml): 1.5%; % B/B0 ([5]; isoxsuprine 100 ng/ml): 1.3%; % B/B0 ([5]; isoxsuprine 200 ng/ml): 0.9%; % CR [6]: 20.2%
CC(CCc1ccc(O)cc1)NCC(O)c1ccc(O)cc1 (stereo not drawn) [Ractopamine],2.69 ng/mL,100,4.2 ng/mL,100,100,100,% CR [5]: <0.1%; % CR [6]: <0.5%; cross-reactivity [7]: 20%; % B/B0 ([3]; ractopamine 0.025 ng/ml): 84%; % B/B0 ([3]; ractopamine 0.1 ng/ml): 65%; % B/B0 ([3]; ractopamine 0.25 ng/ml): 46%; % B/B0 ([3]; ractopamine 0.5 ng/ml): 34%; % B/B0 ([3]; ractopamine 1 ng/ml): 24%; % B/B0 ([4]; ractopamine 0.05 ng/ml): 53.5%; % B/B0 ([4]; ractopamine 0.1 ng/ml): 49.5%; % B/B0 ([4]; ractopamine 0.5 ng/ml): 23.7%; % B/B0 ([4]; ractopamine 1 ng/ml): 16.9%; % B/B0 ([4]; ractopamine 5 ng/ml): 6.33%
CC(NCCc1ccc(O)cc1)C(O)c1ccc(O)cc1 (stereo not drawn) [Ritodrine],73.8 ng/mL,3.6,577 ng/mL,0.8,<0.5,<0.16,% CR [5]: <0.1%; % CR [6]: 100%; % B/B0 ([6]; ritodrine 1 ng/ml): 92.0%; % B/B0 ([6]; ritodrine 5 ng/ml): 82.3%; % B/B0 ([6]; ritodrine 10 ng/ml): 80.2%; % B/B0 ([6]; ritodrine 50 ng/ml): 64.7%; % B/B0 ([6]; ritodrine 100 ng/ml): 55.9%; % B/B0 ([6]; ritodrine 500 ng/ml): 30.0%; % B/B0 ([6]; ritodrine 1000 ng/ml): 22.6%
CC(C)NC[C@H](O)c1ccc(O)c(O)c1 [(−) Isoproterenol],–,–,–,–,<0.01,<0.16,–
CC(C)(C)NCC(O)c1ccc(O)c(CO)n1 (stereo not drawn) [Pirbuterol],–,–,–,–,<0.05,<0.16,–
CC(C)(C)NCC(O)c1cc(Cl)c(N)c(C(F)(F)F)c1 (stereo not drawn) [Mabuterol],–,–,–,–,<0.01,<0.16,–
CC(C)(C)NCC(O)c1ccc(O)c(CO)c1 (stereo not drawn) [Salbutamol],–,<0.1,"79,000 ng/ml",<0.01,<0.01,<0.16,–
CC(CCc1ccc(O)cc1)NCCc1ccc(O)c(O)c1 (stereo not drawn) [Dobutamine],50.3 ng/mL,5.3,12.7 ng/mL,33,<0.8,0.186,% CR [5]: <0.1%; % CR [6]: <5.0%; % CR ([3]; listed as dobutamine): < 0.8%; % CR ([4]; listed as dobutamine): 0.186% and < 0.8%
CC(Cc1ccc(O)cc1)NCC(O)c1cc(O)cc(O)c1 (stereo not drawn) [Fenoterol],"2,682 ng/ml",0.1,310 ng/mL,1.3,<0.05,<0.16,–
OCc1cc(C(O)CNCCCCCCOCCCCc2ccccc2)ccc1O (stereo not drawn) [Salmeterol Xinafoate],1519 ng/mL,0.2,"1,800 ng/ml",0.2,<0.5,<0.16,–
Methyl Clenbuterol,–,–,–,–,<0.05,<0.16,–
CC(C)NCC(O)c1ccc(N)c(C#N)c1 (stereo not drawn) [Cimaterol],–,–,–,–,<0.01,<0.16,–
CC(C)(C)NCC(O)c1cc(Cl)c(N)c(Cl)c1 (stereo not drawn) [Clenbuterol],–,<0.1,">100,000 ng/ml",<0.01,<0.01,<0.16,–
NCCc1ccc(O)c(O)c1 [Dopamine],–,–,–,–,<0.01,<0.16,–
CC(C)(C)NCC(O)c1ccccc1Cl (stereo not drawn) [Tulobuterol],–,–,–,–,<0.05,<0.16,–
CC(C)(C)NCC(O)c1cc(O)cc(O)c1 (stereo not drawn) [Terbutaline],–,–,–,–,<0.01,<0.16,–
CC(C)NCC(O)c1cc(O)cc(O)c1 (stereo not drawn) [Metaproterenol],–,–,">100,000 ng/ml",<0.01,<0.01,<0.16,–
